Literature values in patent publication US20010033859A1, “Transdermal therapeutic system for delivery of dofetilide” (priority 2000, published 2001).

Details: stated as a property of the drug substance; solvent system not given

In the case of `CN(CCOc1ccc(NS(C)(=O)=O)cc1)CCc1ccc(NS(C)(=O)=O)cc1` [dofetilide, N-[4-[2-[methyl[2-[4-[(methylsulfonyl)amino]phenoxy]ethyl]amino]ethyl]phenyl]-methanesulfonamide], the partition coefficient is listed as “about 1”.
